Test results from patent publication US20190275040A1, “COMPOUNDS AND METHODS FOR TREATING OR PREVENTING ALZHEIMER'S DISEASE” (YALE UNIVERSITY, priority 2016, published 2019).
Each block holds one molecule with its values, some of them ahead of it.

Columns and labels:
[1] = target: T1, Pyk2 (Homo sapiens, UniProt Q14289); experiment: Pyk2 Ki of kinase inhibitors (CHEMBL & IUPHR-BPS database screen, Table 2); format: biochemical; conditions: Pyk2 versus Fyn
[2] = target: T1, Pyk2; conditions: read-out: Pyk2 Ki; cited from earlier work
[3] = system: APP/PS1 mice; conditions: cited from earlier work
[4] = system: cultured hippocampal neurons; experiment: Graf1c knockdown-induced dendritic spine loss in cultured hippocampal neurons; format: cell-based, mouse; conditions: 10 μM
Method: FIGS. 17A-17B illustrate the finding that Graf1 is a functional GTPase activating protein (GAP) in mature neurons and regulates dendritic spine formation. FIG. 17A: Representative fluorescence images of cultured hippocampal neurons. […] Scale bar, 10 μm. FIG. 17B: Quantification of dendritic spine density in the transfected neurons.
Next, it was evaluated whether RhoA activity is necessary for Pyk2-induced decrease in dendritic spine density. As described elsewhere herein, overexpression of GFP-Pyk2 induces loss of half of hippocampal neuron dendritic spines (FIGS. 10E-10F). […] Therefore, Pyk2 interacts with Graf1c within dendritic spines to allow increased RhoA-GTP levels and subsequent reduced synapse density.

[5] = system: primary hippocampal neurons; experiment: Dendritic spine motility in primary hippocampal neurons; format: cell-based, mouse
From the text: FIG. 11A: Representative images of dendritic spine motility by standard deviation projection of time-lapse image. […] The standard deviation value for each pixel is shown by thermal color scale. […] FIG. 11B: Quantification of spine motility, expressed as % of changed area of spines with subtraction of changed area of dendritic shaft as background (changed area=(ΔAspine/Aspine×100)−(ΔAshaft/Ashaft×100)). […] Data are graphed as mean±SEM (n=7-8 coverslips from 3 different cultures). **p<0.01, ***p<0.001 by ANOVA, Tukey's multiple comparisons test.
FIG. 18A: Representative images of dendritic spine motility by standard deviation projection of time stacks. […] To display the spine motility in time-lapse images, the time stack images over 5 min of each conditions were projected to standard deviation using Image J and color coated with thermal color scale. […] FIG. 18B: Quantification of spine motility, expressed as % of changed area of spines with subtraction of dendritic shaft area change (changed area=(ΔAspine/Aspine×100)−(ΔAshaft/Ashaft×100)). Mean±SEM (n=5 coverslips).
Time-lapse images were acquired for 5 minutes with 10 second intervals in Tyrode's solution using 60× objective lens driven Volocity software. Time-lapse images (31 time frames over 5 min) were subjected to standard deviation (STD) projection to visualize spine motility in single image and colorized with thermal scale using ImageJ software (NIH). Quantitative measurements of spine motility by calculating the changed area at individual dendritic spines were conducted by using ImageJ software by an observer unaware of treatment group.

T1 sequence (Q14289 whole entry, species assumed): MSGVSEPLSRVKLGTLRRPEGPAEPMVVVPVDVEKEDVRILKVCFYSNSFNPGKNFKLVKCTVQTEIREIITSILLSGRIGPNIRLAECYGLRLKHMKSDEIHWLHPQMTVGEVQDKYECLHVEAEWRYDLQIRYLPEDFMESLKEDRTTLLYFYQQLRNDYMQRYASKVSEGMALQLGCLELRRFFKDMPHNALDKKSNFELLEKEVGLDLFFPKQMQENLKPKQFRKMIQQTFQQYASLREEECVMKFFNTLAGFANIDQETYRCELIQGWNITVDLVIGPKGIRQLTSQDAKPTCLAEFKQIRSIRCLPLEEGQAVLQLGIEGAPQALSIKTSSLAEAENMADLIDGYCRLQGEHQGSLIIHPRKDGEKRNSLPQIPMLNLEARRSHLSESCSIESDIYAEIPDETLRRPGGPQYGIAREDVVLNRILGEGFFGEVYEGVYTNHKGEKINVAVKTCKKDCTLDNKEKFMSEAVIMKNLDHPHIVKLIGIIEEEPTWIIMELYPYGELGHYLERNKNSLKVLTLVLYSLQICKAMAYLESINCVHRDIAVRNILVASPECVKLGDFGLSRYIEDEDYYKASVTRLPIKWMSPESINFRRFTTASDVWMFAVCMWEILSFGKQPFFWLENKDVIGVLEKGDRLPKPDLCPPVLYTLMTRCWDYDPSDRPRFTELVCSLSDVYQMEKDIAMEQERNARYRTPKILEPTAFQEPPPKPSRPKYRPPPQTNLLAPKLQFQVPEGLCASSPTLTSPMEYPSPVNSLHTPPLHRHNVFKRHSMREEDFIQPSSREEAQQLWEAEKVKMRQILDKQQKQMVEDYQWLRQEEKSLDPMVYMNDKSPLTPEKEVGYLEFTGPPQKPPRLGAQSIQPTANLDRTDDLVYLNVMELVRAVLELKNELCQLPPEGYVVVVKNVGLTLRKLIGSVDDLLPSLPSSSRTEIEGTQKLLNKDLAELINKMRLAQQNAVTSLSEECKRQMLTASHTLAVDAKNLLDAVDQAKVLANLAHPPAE

Inhibition Character [1]: Fyn selective
Structure (SMILES): CN1CCN(CCOc2cc(OC3CCOCC3)c3c(Nc4c(Cl)ccc5c4OCO5)ncnc3c2)CC1 [AZD-0530, N-(5-chloro-1,3-benzodioxol-4-yl)-7-[2-(4-methyl-1-piperazinyl)ethoxy]-5-[(tetrahydro-2H-pyran-4-yl)oxy]-4-quinazolinamine]
Ki [2]: > 1000 nM
memory deficits and synapse loss in APP/PS1 mice ([3]; mouse, in vivo): rescuing memory deficits and synapse loss
activated p-Pyk2 level in transgenic mice ([3]; transgenic mice have a two-fold increase): reduces this level to that of WT mice

Inhibition Character [1]: dual Pyk2-Fyn
Structure (SMILES): Cc1cnc(Nc2cccc(S(N)(=O)=O)c2)nc1Nc1ccc(OCC(N)=O)cc1 [Compound 8, 2-(4-((5-methyl-2-((3-sulfamoylphenyl)amino)pyrimidin-4-yl)amino)phenoxy)acetamide]

Structure (SMILES): Cn1cc(-c2cnc(N)c3c(-c4ccc(NC(=O)Nc5ccc(OC(F)F)cc5)cc4)csc23)cn1 [Compound 6, 1-(4-(4-amino-7-(1-methyl-1H-pyrazol-4-yl)thieno[3,2-c]pyridin-3-yl)phenyl)-3-(4-(difluoromethoxy)phenyl)urea]
Inhibition Character [1]: dual Pyk2-Fyn

Structure (SMILES): C[C@@H](N)[C@H]1CC[C@H](C(=O)Nc2ccncc2)CC1 [Compound Y27632]
Graf1c-knockdown-induced spine loss [4]: rescue Graf1c-knockdown-induced spine loss
Aβo-induced decrease in spine motility ([5]; Aβo 24 hours, PF-719 1 μM, Y27632 10 μM): rescue fully the Aβo-induced decrease in spine motility

Structure (SMILES): C[C@]12O[C@H](C[C@]1(O)CO)n1c3ccccc3c3c4c(c5c6ccccc6n2c5c31)CNC4=O [Lestaurtinib, (5S,6S,8R)-6-Hydroxy-6-(hydroxymethyl)-5-methyl-7,8,14,15-tetrahydro-5H-16-oxa-4b,8a,14-triaza-5,8-methanodibenzo[b,h]cycloocta[jkl]cyclopenta[e]-as-indacen-13(6H)-one]
Inhibition Character [1]: dual Pyk2-Fyn

Inhibition Character [1]: dual Pyk2-Fyn
Structure (SMILES): Cc1cc(N2CCOCC2)cc2nc(-c3c(NCC(O)c4cccc(Cl)c4)cc[nH]c3=O)[nH]c12 (centres unmarked) [Compound 5, 4-((2-(3-chlorophenyl)-2-hydroxyethyl)amino)-3-(7-methyl-5-morpholino-1H-benzo[d]imidazol-2-yl)pyridin-2(1H)-one]

Structure (SMILES): C=C1[C@@H](C)[C@H]2[C@H](Cc3ccccc3)NC(=O)[C@]23[C@H](OC(C)=O)/C=C/[C@@](C)(O)C(=O)[C@@H](C)C/C=C/[C@H]3[C@@H]1O [cytochalasin D]
spine motility (actin dependence) ([5]; 1 μm Cytochalasin D for 20 minutes, no Aβo): near complete cessation of spine motility
